The source of these data is US20260256833A1, “USE OF BORON FOR THE TREATMENT OF LEISHMANIASIS DISEASE” (YEDITEPE UNIVERSITESI, priority 2023, published 2026).

As a reminder, the IC50 is the concentration at which inhibition is half-maximal. A lower IC50 goes with inhibition by little substance. The cell viability is a per cent measure of how many cells are alive, often set against a control. A higher cell viability goes with less harm to the cells.

The subject of one data set is leishmaniasis. Particulars: cited from earlier work.
In data set [1] the test system is Leishmania infantum (MHOM/MA/67/ITMA-P263) promastigotes. Briefly: Resazurin / Alamar Blue viability assay on promastigotes. Format: cell-based. Particulars: for parasite viability: SPT above 100 μM. Here is the method: Leishmania infantum (MHOM/MA/67/ITMA-P263) promastigotes are incubated in RPMI medium (heat inactivated 10% fetal bovine serum, 2 mM L-glutamine, 20 mM HEPES, 100 U/ml penicillin, 100 μg/ml streptomycin) at 27° C. Parasites reaching the logarithmic phase (10^6/ml) are made infective.
Leishmania parasites are incubated in culture medium and the effect of SPT on the proliferation of their promastigotes is analyzed. In summary, Leishmania infantum (MHOM/MA/67/ITMA-P263) promastigotes are incubated in RPMI medium (heat inactivated 10% fetal bovine serum, 2 mM L-glutamine, 20 mM Hepes, 100 U/ml penicillin, 100 μg/ml streptomycin) at 27° C. […] The viability of the parasites is determined by applying Alamar Blue assay. By obtaining IC50 values from the samples whose fluorescence intensities are read according to the Alamar Blue assay protocol, the activities of SPT are determined.
For orientation: Resazurin is reduced to fluorescent resorufin, in cell work by metabolically active cells.

The test system of data set [2] is L. infantum promastigotes. Briefly: Mitochondrial membrane potential, Rhodamine 123. It is filed as cell-based, Leishmania infantum. The protocol: Mitochondrial membrane potential (ΔΨPm) is measured by using Rhodamine 123 mitochondrial specific fluorescent dye (Sigma-Aldrich). In summary, cells were seeded in a 48-well plate at 300.000 parasites/well. The following day, parasites are treated with SPT at various concentrations (50-400 uM) for 24 and 48 hours. After incubation, cells are resuspended in serum-free RPMI containing 10 μM Rhodamine 123 and incubated in the dark at 37-C for 30 minutes. They are then centrifuged and washed twice with 1×DPBS. The cell suspension is transferred to a 96-well plate and fluorescence intensities are measured at 490 nm excitation and 515 nm emission by using a spectrophoto-fluorimeter (Varioskan LUX multimode reader, Thermo Scientific). Absorbance is evaluated as a fold change with respect to the negative control group.

Data set [3] concerns macrophages infected with L. infantum. Description: Infection rate of infected macrophages by flow cytometry. It is filed as cell-based, Leishmania infantum. The settings on record: SPT 50, 75, 100, 150, 200 and 400 μM; 24, 48 and 72 hours. Here is the method:
RAW264.7 macrophage cells and L. infantum promastigotes were stained with PKH26 (Red Fluorescent Cell Linker Kit, Sigma-Aldrich) and PKH67 (Green Fluorescent Cell Linker Kit, Sigma-Aldrich), respectively, according to the procedure described previously in the article by Islek et al. (2021). A total cell concentration of 10^7 cells/ml was used. Before infection, the staining rate of parasites and cells was determined by flow cytometry.
The effect of SPT on the proliferation of macrophage cells infected with parasites is analyzed. In summary, macrophages are infected with parasites at 37° C. at a ratio of 10:1 (parasite: macrophage). After 3 and a half hours, infected macrophages are washed with medium to remove the remaining parasites. Infected macrophages are left to incubate with SPT at different concentration ranges at 37° C. for 3 days, fixed at the end of 3 days and the infection rate is determined by flow cytometer. The percentage of infection is determined according to the following formula: […]
On the technique in general: Flow cytometry measures light scatter and fluorescence of single cells or particles in a stream.

Data set [4] has as its system L. infantum promastigotes. Briefly: Phase-contrast and SEM morphology of parasites. Format: cell-based, Leishmania infantum. The settings on record: 24 and 48 hours of incubation with SPT. The protocol: In parallel to this, Leishmania parasites incubated with SPT at different concentrations were morphologically examined under scanning electron microscopy.

Molecules are shown by their SMILES. Where two headings read alike, the source gives them in different places.

Regarding `C[C@@H]1[C@H](O)[C@@H](C)/C=C/C=C/C=C/C=C/C=C/C=C/C=C/[C@H](O[C@@H]2O[C@H](C)[C@@H](O)[C@H](N)[C@@H]2O)C[C@@H]2O[C@](O)(C[C@@H](O)C[C@@H](O)[C@H](O)CC[C@@H](O)C[C@@H](O)CC(=O)O[C@H]1C)C[C@H](O)[C@H]2C(=O)O` [Amphotericin B], the “cure (comparison data)” value with leishmaniasis (6-month therapy) is 97%. In the data set with leishmaniasis (cases where antimonial resistance is observed), the cure rate is about 100%.
`CCCCCCCCCCCCCCCCOP(=O)([O-])OCC[N+](C)(C)C` [Miltefosine]: the “cure (comparison data)” value in the data set with leishmaniasis (miltefosine data compared with 6-month Amphotericin B therapy) is recorded as 94%. Besides, the cure level in the data set with leishmaniasis (oral, 3-4-week treatment) is recorded as 95-100%.
The compound `O.O.O.O.[Na+].[O-]B1OO1` [SPT, sodium perborate tetrahydrate] returned an IC50 in data set [1] (72 hours) of 72 ± 7.51 µM. Moreover, the cell viability result is on record as “below 80%” in data set [1] (SPT 75 μM, 24 hours); under 55% in data set [1] (SPT 75 μM, 48 hours); “above 80%” in data set [1] (SPT ≤50 uM, 24, 48 and 72 hours). This compound also returned a viability of promastigotes in data set [1] (SPT 75 μM, 72 hours) of 50%. In data set [1] (SPT 100, 125, 150 and 200 μM, 72 hours), the “reduction in parasite viability” value is on record as “approximately 80%”. Moreover, the parasite viability is under 33% in data set [1] (24 hours) and under 25% in data set [1] (48 hours). In addition, the mitochondrial membrane potential in data set [2] (SPT 100 μM, 24 hours) turned out to be 52.2%; in data set [2] (SPT 100 μM, 48 hours) it was 32.8%; in data set [2] (SPT 150 μM, 24 hours), 39.1%; in data set [2] (SPT 150 μM, 48 hours), 34.1%; in data set [2] (SPT 200 μM, 24 hours), 57.5%; in data set [2] (SPT 200 μM, 48 hours), 41.5%. Further, the mitochondrial membrane potential is 44.6% in data set [2] (SPT 400 μM, 24 hours); 30.1% in data set [2] (SPT 400 μM, 48 hours); “below 53%” in data set [2] (SPT ≥100 μM, 24 hours); “below 35%” in data set [2] (SPT ≥100 μM, 48 hours). Besides, the “percentage of mitochondrial membrane potential” value in data set [2] (SPT ≤75 uM, 24 and 48 hours) was “above 80%”. For the same compound, the infection rate entry in data set [3] is “infection rate did not increase regardless of time and concentration”. Also, the “cell number and morphology by microscopy” value in data set [4] is reported as “dose-dependent decrease in cell number”.
